Key:
[1] = molecular target: CYP2C19 (Homo sapiens, UniProt P33261); assay: Biological Test Example 8: CYP2C19 inhibition (diazepam N-demethylation); format: in vitro ADME
[2] = molecular target: T1, CYP2C9 (Homo sapiens, UniProt P11712); assay: Biological Test Example 7: CYP2C9 inhibition (naproxen O-demethylation); format: in vitro ADME
T1 construct: purchased Invitrogen 2859; host or cells: insect cells infected with baculovirus (microsomes)

[3] = molecular target: CYP3A4 (Homo sapiens, UniProt P08684); assay: Biological Test Example 6: CYP3A4 inhibition (erythromycin N-demethylation); format: in vitro ADME
Chain of CYP3A4 (P08684 whole entry): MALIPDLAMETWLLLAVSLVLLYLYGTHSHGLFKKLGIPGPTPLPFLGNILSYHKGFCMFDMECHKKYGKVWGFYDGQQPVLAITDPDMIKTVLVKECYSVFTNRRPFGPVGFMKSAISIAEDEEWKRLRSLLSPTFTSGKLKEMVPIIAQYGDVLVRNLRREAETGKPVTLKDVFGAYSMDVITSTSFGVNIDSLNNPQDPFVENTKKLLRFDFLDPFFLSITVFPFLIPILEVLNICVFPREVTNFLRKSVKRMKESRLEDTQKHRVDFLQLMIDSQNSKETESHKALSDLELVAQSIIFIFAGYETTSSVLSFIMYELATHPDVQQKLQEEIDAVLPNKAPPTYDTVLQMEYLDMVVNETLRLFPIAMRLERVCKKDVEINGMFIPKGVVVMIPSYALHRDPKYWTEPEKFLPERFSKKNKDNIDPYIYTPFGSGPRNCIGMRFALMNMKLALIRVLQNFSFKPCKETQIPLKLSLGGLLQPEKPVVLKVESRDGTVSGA

[4] = molecular target: T1, CYP2C9; assay: Biological Test Example 9: CYP2C9 inhibition (Invitrogen kit, fluorogenic OOMR); format: in vitro ADME
[5] = molecular target: T2, 11β-HSD1 (Homo sapiens, UniProt P28845); assay: Biological Test Example 4: microsomal 11β-HSD1 in the presence of 50% human plasma; settings: for Shift: IC50 in Test Example 4 divided by IC50 in Test Example 1
T2 sequence (P28845 whole entry): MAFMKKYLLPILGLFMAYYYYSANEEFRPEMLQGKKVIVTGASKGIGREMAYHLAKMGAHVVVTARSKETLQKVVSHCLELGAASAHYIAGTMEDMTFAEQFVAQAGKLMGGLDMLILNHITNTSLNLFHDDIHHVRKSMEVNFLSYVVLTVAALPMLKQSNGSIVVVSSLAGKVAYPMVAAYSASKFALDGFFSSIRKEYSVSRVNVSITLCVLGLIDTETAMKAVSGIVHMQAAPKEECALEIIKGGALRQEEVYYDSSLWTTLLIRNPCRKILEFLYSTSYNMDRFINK

[6] = molecular target: T2, 11β-HSD1; assay: biochemical; settings: for inhibition at 0.1 µM: read-out: Average % inhibition at 100 nM
[7] = Biological Test Example 1 IC50 (nM)
[8] = IC50 Range, Biological Test Example 1

Chain of CYP2C19 (P33261 whole entry): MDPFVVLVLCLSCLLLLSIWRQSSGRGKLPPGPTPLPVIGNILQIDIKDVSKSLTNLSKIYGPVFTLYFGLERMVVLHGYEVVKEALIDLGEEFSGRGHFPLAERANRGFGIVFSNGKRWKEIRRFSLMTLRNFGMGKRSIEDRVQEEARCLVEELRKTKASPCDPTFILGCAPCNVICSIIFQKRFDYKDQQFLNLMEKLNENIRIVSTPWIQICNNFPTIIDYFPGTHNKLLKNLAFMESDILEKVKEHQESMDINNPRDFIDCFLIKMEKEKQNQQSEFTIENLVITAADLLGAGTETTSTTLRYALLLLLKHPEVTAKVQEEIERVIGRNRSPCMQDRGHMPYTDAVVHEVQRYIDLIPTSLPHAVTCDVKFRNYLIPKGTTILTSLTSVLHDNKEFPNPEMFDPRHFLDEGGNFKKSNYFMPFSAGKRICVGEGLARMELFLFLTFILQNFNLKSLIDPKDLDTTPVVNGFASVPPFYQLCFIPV
T1 sequence (P11712 whole entry): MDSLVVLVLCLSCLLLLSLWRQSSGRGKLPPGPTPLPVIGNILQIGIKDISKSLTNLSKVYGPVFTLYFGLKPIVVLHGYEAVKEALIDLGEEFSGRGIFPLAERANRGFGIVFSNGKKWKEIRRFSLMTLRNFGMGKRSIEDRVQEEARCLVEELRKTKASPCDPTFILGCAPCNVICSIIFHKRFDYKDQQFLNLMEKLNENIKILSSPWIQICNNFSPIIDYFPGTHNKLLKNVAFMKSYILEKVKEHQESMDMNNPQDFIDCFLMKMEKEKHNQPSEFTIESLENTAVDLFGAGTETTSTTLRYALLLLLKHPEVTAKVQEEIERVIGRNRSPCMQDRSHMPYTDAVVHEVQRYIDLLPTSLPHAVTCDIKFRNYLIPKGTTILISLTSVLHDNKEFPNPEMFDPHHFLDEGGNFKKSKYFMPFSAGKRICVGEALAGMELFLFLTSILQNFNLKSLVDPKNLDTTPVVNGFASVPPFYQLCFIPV

| Compound | IC50 [1] | IC50 [2] | IC50 [3] | IC50 [4] | IC50 [5] | IC50 [6, 7] | IC50 [6, 8] | inhibition at 0.1 µM [6] | Shift [5] |
| --- | --- | --- | --- | --- | --- | --- | --- | --- | --- |
| Cc1cc(-c2ccc([C@H](C)N3CC[C@](CCO)(c4ccc(F)cc4)OC3=O)cc2)ccn1 [EXAMPLE 75, (S)-6-(4-fluorophenyl)-6-(2-hydroxyethyl)-3-((S)-1-(4-(2-methylpyridin-4-yl)phenyl)ethyl)-1,3-oxazinan-2-one] | – | 12.2 µM | 14.9 µM | 9.1 µM | 0.0098 µM | 1.1 nM | < 100 nM | 97.7% | – |
| C=CC[C@]1(c2ccc(F)cc2)CCN([C@@H](C)c2ccc(-c3cncc(F)c3)cc2)C(=O)O1 [EXAMPLE 51, (R)-6-allyl-6-(4-fluorophenyl)-3-((S)-1-(4-(5-fluoropyridin-3-yl)phenyl)ethyl)-1,3-oxazinan-2-one] | – | – | – | 0.7 µM | 0.0607 µM | 1.5 nM | < 100 nM | 96.1% | 40.6 |
| COc1ccc(-c2ccc([C@H](C)N3CC[C@](CCCNS(C)(=O)=O)(c4ccccc4)OC3=O)cc2)cn1 [EXAMPLE 94, N-(3-((R)-3-((S)-1-(4-(6-methoxypyridin-3-yl)phenyl)ethyl)-2-oxo-6-phenyl-1,3-oxazinan-6-yl)propyl)methanesulfonamide] | – | – | – | 4.5 µM | 0.005 µM | 0.5 nM | < 100 nM | 98.7% | 11.0 |
| C[C@@H](c1ccc(-c2cncc(Cl)c2)cc1)N1CC[C@](CCCO)(c2ccc(F)cc2)OC1=O [EXAMPLE 69, (R)-3-((S)-1-(4-(5-chloropyridin-3-yl)phenyl)ethyl)-6-(4-fluoroPhenyl)-6-(3-hydroxypropyl)-1,3-oxazinan-2-one] | – | – | – | 2.3 µM | 0.0063 µM | 0.6 nM | < 100 nM | 98.3% | 9.8 |
| Cc1cc(-c2ccc([C@H](C)N3CC[C@](CCCO)(c4ccc(F)cc4)OC3=O)cc2)nc(C)n1 [EXAMPLE 127, (R)-3-((S)-1-(4-(2,6-dimethylpyrimidin-4-yl)phenyl)ethyl)-6-(4-fluorophenyl)-6-(3-hydroxypropyl)-1,3-oxazinan-2-one] | – | – | – | > 30 µM | 0.0698 µM | 6.1 nM | < 100 nM | 93.7% | 11.5 |
| C[C@@H](c1ccc(-c2ccn(C)n2)cc1)N1CC[C@](CCCO)(c2ccccc2)OC1=O [EXAMPLE 100, (R)-6-(3-hydroxypropyl)-3-((S)-1-(4-(1-methyl-1H-pyrazol-3-yl)phenyl)ethyl)-6-phenyl-1,3-oxazinan-2-one] | – | – | – | 4.5 µM | 0.006 µM | 1.2 nM | < 100 nM | 93.1% | 4.8 |
| C[C@@H](c1ccc(-c2cccnc2)cc1)N1CC[C@](CCCNS(C)(=O)=O)(c2ccccc2)OC1=O [EXAMPLE 91, N-(3-((R)-2-oxo-6-phenyl-3-((S)-1-(4-(pyridin-3-yl)phenyl)ethyl)-1,3-oxazinan-6-yl)propyl)methanesulfonamide] | – | – | – | 17.3 µM | 0.0137 µM | 1.4 nM | < 100 nM | 90.2% | – |
| Cc1cc(-c2ccc([C@H](C)N3CC[C@](CCCO)(c4ccccc4)OC3=O)cc2)cc(C)[n+]1[O-] [EXAMPLE 120, 4-(4-((S)-1-((R)-6-(3-hydroxypropyl)-2-oxo-6-phenyl-1,3-oxazinan-3-yl)ethyl)phenyl)-2,6-dimethylpyridine 1-oxide] | – | – | – | 4.7 µM | 0.0242 µM | 6.7 nM | < 100 nM | 93.1% | 3.6 |
| Cc1cccc(-c2ccc([C@H](C)N3CC[C@](CCCO)(c4ccc(F)cc4)OC3=O)cc2)n1 [EXAMPLE 62, (R)-6-(4-fluorophenyl)-6-(3-hydroxypropyl)-3-((S)-1-(4-(6-methylpyridin-2-yl)phenyl)ethyl)-1,3-oxazinan-2-one] | – | – | – | 10.9 µM | 0.0226 µM | 0.5 nM | < 100 nM | 97.9% | 44.2 |
| C[C@@H](c1ccc(-c2cc[nH]n2)cc1)N1CC[C@](CCCO)(c2ccccc2)OC1=O [EXAMPLE 45, (R)-3-((S)-1-(4-(1H-pyrazol-3-yl)phenyl)ethyl)-6-(3-hydroxypropyl)-6-phenyl-1,3-oxazinan-2-one] | – | – | – | 9 µM | 0.0135 µM | 3 nM | < 100 nM | 96.7% | – |
| Cc1cc(-c2ccc([C@H](C)N3CC[C@](CC4(O)CC4)(c4ccc(F)cc4)OC3=O)cc2)ccn1 [EXAMPLE 115, (S)-6-(4-fluorophenyl)-6-((1-hydroxycyclopropyl)methyl)-3-((S)-1-(4-(2-methylpyridin-4-yl)phenyl)ethyl)-1,3-oxazinan-2-one] | – | – | – | 4.4 µM | 0.0103 µM | 1 nM | < 100 nM | 95.1% | 10.2 |

The remaining lines, values ahead:

| IC50 [1] | IC50 [2] | IC50 [3] | IC50 [4] | IC50 [5] | IC50 [6, 7] | IC50 [6, 8] | inhibition at 0.1 µM [6] | Shift [5] | Compound |
| --- | --- | --- | --- | --- | --- | --- | --- | --- | --- |
| 14.4 µM | 9.2 µM | 9.8 µM | – | – | – | – | – | – | Cc1ncc(-c2ccc([C@H](C)N3CC[C@](CC(C)(C)O)(c4ccccc4)OC3=O)cc2)s1 [EXAMPLE 180, (S)-6-(2-Hydroxy-2-methyl-propyl)-3-{(S)-1-[(2-methyl-4-thiazol-5-yl)-phenyl]-ethyl}-6-phenyl-[1,3]oxazinan-2-one] |
| 17 µM | 10.7 µM | 21.1 µM | – | – | – | – | – | – | C[C@@H](c1ccc(-c2nnc(C(F)(F)F)s2)cc1)N1CC[C@](CC(C)(C)O)(c2ccccc2)OC1=O [EXAMPLE 179, (S)-6-(2-Hydroxy-2-methyl-propyl)-6-phenyl-3-{(S)-1-[4-(5-trifluoromethyl-[1,3,4]thiadiazol-2-yl)-phenyl]-ethyl}-[1,3]oxazinan-2-one] |
| 33.3 µM | 24.2 µM | 26.6 µM | – | – | – | – | – | – | Cc1nn(C)cc1-c1ccc([C@H](C)N2CC[C@](CC(C)(C)O)(c3ccccc3)OC2=O)cc1 [EXAMPLE 193, 3-{(S)-1-[4-(1,3-Dimethyl-1H-pyrazol-4-yl)-phenyl]-ethyl}-(S)-6-(2-hydroxy-2-methyl-propyl)-6-phenyl-[1,3]oxazinan-2-one] |
| 39.4 µM | 48.6 µM | 45.6 µM | – | – | – | – | – | – | C[C@@H](c1ccc(-c2ccc(C(=O)N(C)C)nc2)cc1)N1CC[C@](CC(C)(C)O)(c2ccccc2)OC1=O [EXAMPLE 170] |
| > 50 µM | > 50 µM | 36.4 µM | – | – | – | – | – | – | C[C@@H](c1ccc(-c2cccc([S+](C)[O-])n2)cc1)N1CC[C@](CC(C)(C)O)(c2ccccc2)OC1=O (stereo partly drawn) [EXAMPLE 191, (S)-6-(2-Hydroxy-2-methyl-propyl)-3-{(S)-1-[4-(6-methanesulfinyl-pyridin-2-yl)-phenyl]-ethyl}-6-phenyl-[1,3]oxazinan-2-one] |
| 32.3 µM | 32.6 µM | – | – | – | – | – | – | – | Cc1cnc(-c2ccc([C@H](C)N3CC[C@](CC(C)(C)O)(c4ccccc4)OC3=O)cc2)cn1 [EXAMPLE 151, (S)-6-(2-hydroxy-2-methylpropyl)-3-((S)-1-(4-(5-methylpyrazin-2-yl)phenyl)ethyl)-6-phenyl-1,3-oxazinan-2-one] |
| > 50 µM | 25.9 µM | > 50 µM | – | – | – | – | – | – | C[C@@H](c1ccc(-c2ccnc(S(C)(=O)=O)c2)cc1)N1CC[C@](CC(C)(C)O)(c2ccccc2)OC1=O [EXAMPLE 187, (S)-6-(2-Hydroxy-2-methyl-propyl)-3-{(S)-1-[4-(2-methanesulfonyl-pyridin-4-yl)-phenyl]-ethyl}-6-phenyl-[1,3]oxazinan-2-one] |
| 15.5 µM | 10.4 µM | 11.2 µM | – | – | – | – | – | – | C[C@@H](c1ccc(-c2cnc(C3CC3)nc2)cc1)N1CC[C@](CC(C)(C)O)(c2ccccc2)OC1=O [EXAMPLE 192, 3-{(S)-1-[4-(2-Cyclopropyl-pyrimidin-5-yl)-phenyl]-ethyl}-(S)-6-(2-hydroxy-2-methyl-propyl)-6-phenyl-[1,3]oxazinan-2-one] |
| > 50 µM | > 50 µM | > 50 µM | – | – | – | – | – | – | C[C@@H](c1ccc(-c2cncc([S+](C)[O-])c2)cc1)N1CC[C@](CC(C)(C)O)(c2ccccc2)OC1=O (stereo partly drawn) [EXAMPLE 189, (S)-6-(2-Hydroxy-2-methyl-propyl)-3-{(S)-1-[4-(5-methanesulfinyl-pyridin-3-yl)-phenyl]-ethyl}-6-phenyl-[1,3]oxazinan-2-one] |
| > 50 µM | > 50 µM | – | – | – | – | – | – | – | C[C@@H](c1ccc(-c2ccc(C(N)=O)cn2)cc1)N1CC[C@](CC(C)(C)O)(c2ccccc2)OC1=O [EXAMPLE 143, 6-(4-((S)-1-((S)-6-(2-hydroxy-2-methylpropyl)-2-oxo-6-phenyl-1,3-oxazinan-3-yl)ethyl)phenyl)nicotinamide] |
| – | – | – | 20.1 µM | 0.0045 µM | 0.9 nM | < 100 nM | 93.4% | 5.0 | C[C@@H](c1ccc(-c2cnc(-n3ccnc3)nc2)cc1)N1CC[C@](CC(C)(C)O)(c2ccccc2)OC1=O [EXAMPLE 14, (S)-3-((S)-1-(4-(2-(1H-imidazol-1-yl)pyrimidin-5-yl)phenyl)ethyl)-6-(2-hydroxy-2-methylpropyl)-6-phenyl-1,3-oxazinan-2-one] |
| 33.8 µM | 28.8 µM | – | – | – | – | – | – | – | CNC(=O)c1ccc(-c2ccc([C@H](C)N3CC[C@](CC(C)(C)O)(c4ccccc4)OC3=O)cc2)nc1 [EXAMPLE 150, 6-(4-{1-[6-(2-Hydroxy-2-methyl-propyl)-2-oxo-6-phenyl-[1,3]oxazinan-3-yl]-ethyl}-phenyl)-N-methyl-nicotinamide] |

— US8569292B2, “Cyclic inhibitors of 11β-hydroxysteroid dehydrogenase 1” (Vitae Pharmaceuticals, Inc., priority 2008, dated 2013)
